The text below walks through data of US9481709B2, “Boropeptide inhibitors of enteropeptidase and their uses in treatment of obesity, overweight and/or diseases associated with an abnormal fat metabolism” (OBE THERAPY BIOTECHNOLOGY, priority 2007, dated 2016).

What is called IC50 is the point on the concentration scale where inhibition reaches its midpoint. The low end stands for inhibition by little substance, the high end for a need for much substance.

Structures are written as SMILES.

Test [1] deals with T1, Trypsin from human pancreas (Homo sapiens, UniProt P07477).
T1 construct: Trypsin from human pancreas; purchased SIGMA T6424; host or cells: human pancreas
Put plainly: Trypsin assay. The format is biochemical. The note with it: in vitro; range printed jointly for trypsin, kallikrein and plasmin. The procedure:
(§1) 2.2. Thrombin, Trypsin, Kallikrein, Plasmin, Chymotrypsin and Elastase Assay
(§2) Table IV below lists the final concentrations of the tested enzymes and the corresponding substrates, in the determination of the IC50 without inhibitor (positive control) and in inhibition protocols:
(§3) Measurement without Inhibitor (Positive Control)
(§4) In 17 μl of TN, 1 μl of enzyme and 2 μl of substrate was mixed, just before reading; The Absorbance was measured at 405 nm on EnVision (Perkin Elmer).
(§5) Inhibition in 384 Well Plate Small Volume ([…])
(§6) In 15 μl of TN, 1 μl of enzyme and 2 μl of Inhibitor (compound of the invention) at different concentrations were mixed and incubated at RT for 30 minutes; 2 μl of substrate was added, just before reading; The Absorbance was measured at 405 nm on EnVision (Perkin Elmer).

In test [2] the target is T2, Kallikrein from human plasma (Homo sapiens, UniProt P03952).
T2 construct: Kallikrein from human plasma; purchased SIGMA K2638; host or cells: human plasma
T2 sequence (P03952 391-638 limits assumed): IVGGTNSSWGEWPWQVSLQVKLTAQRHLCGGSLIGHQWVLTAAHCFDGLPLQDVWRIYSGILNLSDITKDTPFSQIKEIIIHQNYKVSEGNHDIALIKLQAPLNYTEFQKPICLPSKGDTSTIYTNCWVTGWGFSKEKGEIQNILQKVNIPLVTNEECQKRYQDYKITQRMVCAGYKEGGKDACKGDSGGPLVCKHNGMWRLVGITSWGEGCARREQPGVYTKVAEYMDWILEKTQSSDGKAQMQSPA
T2 sequence (P03952 20-390 partner limits assumed): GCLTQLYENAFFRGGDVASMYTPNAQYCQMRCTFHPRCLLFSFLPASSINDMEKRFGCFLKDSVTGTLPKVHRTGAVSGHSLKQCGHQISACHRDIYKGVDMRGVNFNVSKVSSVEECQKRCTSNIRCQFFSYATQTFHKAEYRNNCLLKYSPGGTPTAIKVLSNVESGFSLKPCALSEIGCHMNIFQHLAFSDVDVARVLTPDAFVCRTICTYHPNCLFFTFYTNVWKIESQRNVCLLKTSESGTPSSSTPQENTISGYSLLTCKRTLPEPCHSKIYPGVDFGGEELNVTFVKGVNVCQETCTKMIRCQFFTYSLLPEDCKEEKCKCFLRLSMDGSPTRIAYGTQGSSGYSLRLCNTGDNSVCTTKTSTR
Put plainly: Kallikrein assay. The format is biochemical. The note with it: in vitro. On the procedure: as §1, §2, §3, §4, §5, §6

In test [3] the target is T3, Plasmin from human plasma (Homo sapiens, UniProt P00747).
T3 construct: Plasmin from human plasma; purchased SIGMA P1867; host or cells: human plasma
T3 sequence (P00747 581-810 limits assumed): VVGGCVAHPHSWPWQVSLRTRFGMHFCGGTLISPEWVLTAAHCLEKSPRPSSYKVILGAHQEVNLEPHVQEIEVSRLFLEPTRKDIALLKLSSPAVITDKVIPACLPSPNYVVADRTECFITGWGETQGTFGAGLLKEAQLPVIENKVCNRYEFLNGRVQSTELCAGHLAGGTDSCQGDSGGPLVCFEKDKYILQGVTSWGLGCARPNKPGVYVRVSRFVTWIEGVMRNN
T3 sequence (P00747 98-580 partner limits assumed): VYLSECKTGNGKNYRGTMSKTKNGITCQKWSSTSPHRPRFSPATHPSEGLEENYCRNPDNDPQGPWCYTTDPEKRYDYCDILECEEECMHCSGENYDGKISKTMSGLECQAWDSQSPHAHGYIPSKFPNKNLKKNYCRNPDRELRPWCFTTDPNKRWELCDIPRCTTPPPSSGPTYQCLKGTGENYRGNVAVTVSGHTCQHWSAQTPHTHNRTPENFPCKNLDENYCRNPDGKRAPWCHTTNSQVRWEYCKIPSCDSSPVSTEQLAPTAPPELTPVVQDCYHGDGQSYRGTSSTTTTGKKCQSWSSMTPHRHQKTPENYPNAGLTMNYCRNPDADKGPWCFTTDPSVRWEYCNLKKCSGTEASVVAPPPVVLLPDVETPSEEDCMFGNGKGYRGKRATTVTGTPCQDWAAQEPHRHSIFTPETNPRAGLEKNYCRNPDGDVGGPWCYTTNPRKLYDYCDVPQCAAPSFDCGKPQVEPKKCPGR
Put plainly: Plasmin assay. The format is biochemical. The following applies: in vitro. The procedure: as §1, §2, §3, §4, §5, §6

A further test has as its target Thrombin (Homo sapiens, UniProt P00734). The test can be described thus: Thrombin. An excerpt: (§7) Table printed on a drawing sheet, Fig. 5
Head of the field: Thrombin
(§8) The patent's description of the figure: FIG. 5 is a Table showing the IC 50 (in nM) of enteropeptidase, various serine proteases and other enzyme families, in the presence of compounds OBE 1999, OBE 2000, OBE 2001 or OBE 2002.
(§9) First copying reader's note: Each column is one compound; each row gives its IC50 against the named enzyme.
Where the first naming reader finds the target: head: Thrombin

The target in another test is Plasmin (Homo sapiens, UniProt P00747). Put plainly: Plasmin.
Chain of Plasmin (P00747 97-810): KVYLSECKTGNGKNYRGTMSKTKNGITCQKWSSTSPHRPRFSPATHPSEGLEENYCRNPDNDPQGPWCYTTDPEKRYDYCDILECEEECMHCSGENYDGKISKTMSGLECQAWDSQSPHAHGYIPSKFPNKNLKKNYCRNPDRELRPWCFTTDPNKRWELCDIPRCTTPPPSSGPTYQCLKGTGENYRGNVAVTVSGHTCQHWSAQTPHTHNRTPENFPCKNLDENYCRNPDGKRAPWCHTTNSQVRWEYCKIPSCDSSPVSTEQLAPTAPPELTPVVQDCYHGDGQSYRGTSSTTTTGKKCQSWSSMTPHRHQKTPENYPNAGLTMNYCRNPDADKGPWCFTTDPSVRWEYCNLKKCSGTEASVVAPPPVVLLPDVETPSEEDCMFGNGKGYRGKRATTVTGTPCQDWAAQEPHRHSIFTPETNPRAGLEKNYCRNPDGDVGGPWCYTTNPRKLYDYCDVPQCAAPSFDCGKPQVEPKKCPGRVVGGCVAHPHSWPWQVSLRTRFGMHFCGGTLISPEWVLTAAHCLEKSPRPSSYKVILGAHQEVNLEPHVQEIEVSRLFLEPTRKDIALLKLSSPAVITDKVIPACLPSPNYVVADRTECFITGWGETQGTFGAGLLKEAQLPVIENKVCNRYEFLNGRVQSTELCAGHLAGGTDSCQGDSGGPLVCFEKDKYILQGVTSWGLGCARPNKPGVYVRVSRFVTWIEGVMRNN
From the text: as §7
Head of the field: Plasmin
as §8, §9
Where the first naming reader finds the target: head: Plasmin

The target of another test is Kallikrein (Homo sapiens, UniProt P03952). Put plainly: Kallikrein.
Chain of Kallikrein (P03952 20-638): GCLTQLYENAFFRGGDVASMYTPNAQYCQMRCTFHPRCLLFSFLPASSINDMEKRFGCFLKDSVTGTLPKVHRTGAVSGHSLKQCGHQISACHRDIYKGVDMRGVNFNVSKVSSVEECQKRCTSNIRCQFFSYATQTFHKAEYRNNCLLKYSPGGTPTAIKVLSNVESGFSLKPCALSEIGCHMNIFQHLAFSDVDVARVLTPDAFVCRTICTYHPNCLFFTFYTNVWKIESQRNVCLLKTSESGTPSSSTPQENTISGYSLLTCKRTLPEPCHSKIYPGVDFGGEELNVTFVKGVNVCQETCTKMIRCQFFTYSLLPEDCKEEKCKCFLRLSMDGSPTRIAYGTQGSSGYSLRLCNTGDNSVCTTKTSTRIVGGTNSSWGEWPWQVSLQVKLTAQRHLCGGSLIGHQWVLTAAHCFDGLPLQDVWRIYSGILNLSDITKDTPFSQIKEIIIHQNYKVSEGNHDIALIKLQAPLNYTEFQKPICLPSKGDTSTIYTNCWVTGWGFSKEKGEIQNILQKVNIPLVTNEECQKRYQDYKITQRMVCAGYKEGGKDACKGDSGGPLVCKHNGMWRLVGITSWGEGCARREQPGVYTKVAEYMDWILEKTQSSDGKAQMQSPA
From the text: as §7
Head of the field: Kallikrein
as §8, §9
Where the first naming reader finds the target: head: Kallikrein

Test [4] deals with T4, Enteropeptidase (Homo sapiens, UniProt P98073). Put plainly: Enteropeptidase assay (Np Tosyl Gly Pro Arg pNa substrate, absorbance 405 nm). It is filed as biochemical. The following applies: in vitro, 30 min preincubation at RT. Details: purchased RD system 1585SE. On the procedure: 2.1. Enteropeptidase Assay
Activation of the Enteropeptidase
A mix of enteropeptidase at 58.8 nM (final) and thermolysine at 1.58 ng/I (final) in TCN buffer was prepared; the mix was incubated at 37° C. during 30 minutes for activation. Phosphoramidon (10 μM final) was added to stop the activation by thermolysine.
Measurement of Enteropeptidase Activity without Inhibitor (Positive Control)
In 17 μl of TCN, 1 μl of active enzyme (2.9 nm final) and 2 μl Np Tosyl Gly Pro Arg pNa (1 mM final) were mixed, just before reading. The Absorbance was measured at 405 nm on EnVision (Perkin Elmer).
as §5
Target sequence in this assay (P98073 785-1019 limits assumed): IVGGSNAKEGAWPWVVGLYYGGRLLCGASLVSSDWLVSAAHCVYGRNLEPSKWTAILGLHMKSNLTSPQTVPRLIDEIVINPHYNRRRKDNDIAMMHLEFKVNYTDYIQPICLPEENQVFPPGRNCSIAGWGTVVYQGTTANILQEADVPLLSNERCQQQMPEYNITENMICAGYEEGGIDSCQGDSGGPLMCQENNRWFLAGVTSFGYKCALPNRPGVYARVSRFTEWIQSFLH
Target sequence in this assay (P98073 2-784 partner limits assumed): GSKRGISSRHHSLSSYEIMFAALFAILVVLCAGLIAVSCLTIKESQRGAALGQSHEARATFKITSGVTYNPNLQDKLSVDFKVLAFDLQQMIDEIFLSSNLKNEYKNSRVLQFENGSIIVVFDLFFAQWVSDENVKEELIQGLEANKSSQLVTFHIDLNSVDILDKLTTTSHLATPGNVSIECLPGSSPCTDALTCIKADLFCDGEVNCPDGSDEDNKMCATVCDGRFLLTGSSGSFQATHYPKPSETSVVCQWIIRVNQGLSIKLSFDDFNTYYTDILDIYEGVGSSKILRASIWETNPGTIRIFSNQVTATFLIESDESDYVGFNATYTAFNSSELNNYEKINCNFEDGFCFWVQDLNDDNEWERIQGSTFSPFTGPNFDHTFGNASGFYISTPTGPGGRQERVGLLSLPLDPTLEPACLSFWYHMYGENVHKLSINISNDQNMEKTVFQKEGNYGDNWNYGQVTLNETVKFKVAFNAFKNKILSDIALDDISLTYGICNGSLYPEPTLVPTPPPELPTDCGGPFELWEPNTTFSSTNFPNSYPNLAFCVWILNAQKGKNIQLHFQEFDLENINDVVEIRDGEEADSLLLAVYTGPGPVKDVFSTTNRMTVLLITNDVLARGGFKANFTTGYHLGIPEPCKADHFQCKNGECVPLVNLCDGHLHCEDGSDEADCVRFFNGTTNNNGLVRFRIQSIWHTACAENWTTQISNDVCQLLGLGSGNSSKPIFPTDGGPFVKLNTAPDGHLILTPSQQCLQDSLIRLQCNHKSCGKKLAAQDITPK
In 15 μl of TCN, 1 μl of active enzyme and 2 μl of Inhibitor (compound of the invention) at different concentrations were mixed, and incubated at RT (room temperature) for 30 minutes; 2 μl Np Tosyl Gly Pro Arg pNa (1 mM final) was added just before reading. The Absorbance was measured at 405 nm on EnVision (Perkin Elmer).

The target of test [5] is T5, Thrombin from human plasma (Homo sapiens, UniProt P00734).
T5 construct: Thrombin from human plasma; purchased SIGMA T1063; host or cells: human plasma
Put plainly: Thrombin assay. The format is biochemical. The note with it: in vitro. The procedure:
as §1, §2, §3, §4, §5, §6

Test [6] has as its target T4, Enteropeptidase. Put plainly: Enteropeptidase.
From the text: as §7
Target sequence in this assay (P98073 2-1019): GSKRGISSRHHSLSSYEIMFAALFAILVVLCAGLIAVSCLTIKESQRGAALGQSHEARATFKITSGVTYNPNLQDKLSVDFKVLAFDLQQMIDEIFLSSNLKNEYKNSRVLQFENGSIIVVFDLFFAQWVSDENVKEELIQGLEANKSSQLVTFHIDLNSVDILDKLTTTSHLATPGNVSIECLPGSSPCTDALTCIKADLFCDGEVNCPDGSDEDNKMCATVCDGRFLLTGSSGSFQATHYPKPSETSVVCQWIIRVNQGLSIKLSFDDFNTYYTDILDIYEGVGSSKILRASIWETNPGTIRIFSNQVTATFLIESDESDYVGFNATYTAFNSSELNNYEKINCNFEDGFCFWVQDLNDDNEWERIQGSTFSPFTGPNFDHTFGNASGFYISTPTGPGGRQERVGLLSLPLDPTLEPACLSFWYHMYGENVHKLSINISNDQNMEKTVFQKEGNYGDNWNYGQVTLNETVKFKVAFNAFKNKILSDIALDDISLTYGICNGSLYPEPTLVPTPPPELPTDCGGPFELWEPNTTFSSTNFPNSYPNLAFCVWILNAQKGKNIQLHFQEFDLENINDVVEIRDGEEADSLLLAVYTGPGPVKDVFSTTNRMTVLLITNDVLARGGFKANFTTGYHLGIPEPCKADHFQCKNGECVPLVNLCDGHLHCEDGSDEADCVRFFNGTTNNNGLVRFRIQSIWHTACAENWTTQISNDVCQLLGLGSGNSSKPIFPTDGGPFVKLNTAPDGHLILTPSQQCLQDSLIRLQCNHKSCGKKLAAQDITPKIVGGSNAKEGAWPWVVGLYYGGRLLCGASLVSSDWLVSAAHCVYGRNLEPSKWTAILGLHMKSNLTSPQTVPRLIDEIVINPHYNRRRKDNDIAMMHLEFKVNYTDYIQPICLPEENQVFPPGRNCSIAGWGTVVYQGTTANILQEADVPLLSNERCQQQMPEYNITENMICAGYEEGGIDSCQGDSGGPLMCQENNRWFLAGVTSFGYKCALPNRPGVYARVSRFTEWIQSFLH
Head of the field: Enteropeptidase
as §8, §9
Where the first naming reader finds the target: head: Enteropeptidase

A further test addresses Trypsin (Homo sapiens, UniProt P07477). The test can be described thus: Trypsin.
From the text: as §7
Head of the field: Trypsin
as §8, §9
Where the first naming reader finds the target: head: Trypsin

On to `C[C@H](N)C(=O)N[C@@H](Cc1ccccc1)C(=O)N[C@@H](CCCNC(=N)N)B1OC2C[C@@H]3C[C@@H](C3(C)C)[C@]2(C)O1` (stereo partly shown) [OBE1999], for which the IC50 is 7.5 to 29.8 nM in [1]; 7.5 to 29.8 nM in test [2]; 7.5 to 29.8 nM in test [3]; 6400 nM at Thrombin; 29.8 nM against Plasmin; 7.5 nM on Kallikrein. The molecule further gave an IC50 at Enteropeptidase [4] of 33 nM.
As for `CC1(C)[C@@H]2CC3OB([C@H](CCCNC(=N)N)NC(=O)CNC(=O)[C@@H](N)CCC(=O)O)O[C@@]3(C)[C@H]1C2` (stereo partly shown) [OBE2000], the IC50 in [2] came out at 260 nM; in [3], 7100 nM; against Enteropeptidase [6], 68 nM; against Thrombin it was 3220 nM. The IC50 thrombin entry in test [5] is reported as “high value of IC50”. Also, the IC50 enteropeptidase entry on Enteropeptidase [4] was “low value of IC50”.
As for `CC(=O)N[C@@H](CCC(=O)O)C(=O)NCC(=O)N[C@@H](CCCN=C(N)N)B(O)O` [OBE2002, Acetyl-Glu-Gly-BoroArg], the IC50 kallikrein result in [2] is given as “low IC50 value”. Further, in test [3], the IC50 plasmin result is “low IC50 value”. The IC50 was 33.6 nM at Enteropeptidase [6], 10.5 nM at Trypsin, 3800 nM on Plasmin and 81.4 nM against Kallikrein.
